Results taken from US10172994B2, “Hemodiafiltration method” (Fresenius Medical Care Deutschland GmbH, priority 2012, dated 2019).

Target: bovine serum albumin (Bos taurus, UniProt P02769)
Assay: HF field effect 1 to 170 MHz on separation of phenylacetic acid from BSA solution in dialysis module (HPLC)
Type: in vitro ADME
Settings: BSA 60 mg/ml, 1 mmol/l toxin
Experimental: Examination of the HF field effect in the frequency range 1 to 170 MHz.
The HF field was varied in subbands of 10 MHz in the frequency range 1-170 MHz and was compared with a control experiment without an HF field.
The quantitative determination of the phenylacetic acid was performed using HPLC.
The results of the experiments are collected in FIG. 4. […] The effect was particularly pronounced at 54.6% in the subband from 110 to 120 MHz.

bovine serum albumin, sequence (P02769 25-607): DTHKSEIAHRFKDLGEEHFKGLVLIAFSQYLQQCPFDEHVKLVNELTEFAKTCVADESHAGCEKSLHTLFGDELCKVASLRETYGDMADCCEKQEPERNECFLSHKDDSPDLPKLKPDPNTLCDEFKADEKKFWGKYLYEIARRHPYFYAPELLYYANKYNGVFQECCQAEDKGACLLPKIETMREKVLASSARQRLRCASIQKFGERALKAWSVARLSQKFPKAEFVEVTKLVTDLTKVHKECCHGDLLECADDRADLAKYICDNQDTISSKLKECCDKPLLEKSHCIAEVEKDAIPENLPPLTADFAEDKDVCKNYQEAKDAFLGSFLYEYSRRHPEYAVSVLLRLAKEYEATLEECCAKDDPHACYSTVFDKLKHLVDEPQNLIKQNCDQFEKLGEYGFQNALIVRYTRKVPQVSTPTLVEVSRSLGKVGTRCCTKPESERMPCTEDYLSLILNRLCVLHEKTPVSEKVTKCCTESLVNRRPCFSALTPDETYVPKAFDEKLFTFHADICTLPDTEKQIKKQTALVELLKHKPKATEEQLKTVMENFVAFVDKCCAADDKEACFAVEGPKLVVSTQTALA

## O=C(O)Cc1ccccc1 [phenylacetic acid]
HF field 1-170 MHz in subbands of 10 MHz vs control without HF field
  increase of separation rate under the influence of the HF field: at least 45.3%
Subband from 110 to 120 MHz vs control without HF field
  increase of separation rate under the influence of the HF field: 54.6%
